The text below walks through data of ChEMBL document CHEMBL3991601, “The target landscape of clinical kinase drugs” (Science, 2017).

For assay [1], the target named is RAC-alpha serine/threonine-protein kinase (Homo sapiens, UniProt P31749).
Assay [2] has as its target Ribosomal protein S6 kinase alpha-6 (Homo sapiens, UniProt Q9UK32).
The target of assay [3] is T1, Serine/threonine-protein kinase D3 (Homo sapiens, UniProt O94806).
T1 sequence (O94806 whole entry): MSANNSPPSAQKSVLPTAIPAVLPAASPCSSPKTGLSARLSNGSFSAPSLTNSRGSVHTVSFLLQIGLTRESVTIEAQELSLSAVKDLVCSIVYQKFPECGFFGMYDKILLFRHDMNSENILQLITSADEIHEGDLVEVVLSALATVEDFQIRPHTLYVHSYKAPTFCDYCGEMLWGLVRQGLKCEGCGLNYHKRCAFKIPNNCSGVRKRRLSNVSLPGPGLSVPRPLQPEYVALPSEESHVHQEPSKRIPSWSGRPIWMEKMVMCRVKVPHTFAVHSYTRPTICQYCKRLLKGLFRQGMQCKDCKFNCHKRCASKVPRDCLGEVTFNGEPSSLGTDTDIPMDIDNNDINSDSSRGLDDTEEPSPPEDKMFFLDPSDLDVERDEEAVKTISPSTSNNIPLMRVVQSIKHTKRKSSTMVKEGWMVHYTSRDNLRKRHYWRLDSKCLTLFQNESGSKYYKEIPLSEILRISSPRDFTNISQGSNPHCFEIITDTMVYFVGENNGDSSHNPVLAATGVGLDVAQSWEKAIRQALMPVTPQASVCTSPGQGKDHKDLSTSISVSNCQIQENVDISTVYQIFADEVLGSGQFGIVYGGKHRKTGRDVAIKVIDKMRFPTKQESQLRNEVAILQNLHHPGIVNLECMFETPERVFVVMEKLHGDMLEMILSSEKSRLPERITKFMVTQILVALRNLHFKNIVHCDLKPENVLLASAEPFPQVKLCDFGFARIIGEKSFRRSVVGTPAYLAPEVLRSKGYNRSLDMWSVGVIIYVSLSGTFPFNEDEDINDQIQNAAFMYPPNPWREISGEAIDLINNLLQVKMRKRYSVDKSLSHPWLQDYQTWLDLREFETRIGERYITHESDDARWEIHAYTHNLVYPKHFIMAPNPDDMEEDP

For assay [4], the target named is T2, Calcium/calmodulin-dependent protein kinase type IV (Homo sapiens, UniProt Q16566).
T2 sequence (Q16566 whole entry): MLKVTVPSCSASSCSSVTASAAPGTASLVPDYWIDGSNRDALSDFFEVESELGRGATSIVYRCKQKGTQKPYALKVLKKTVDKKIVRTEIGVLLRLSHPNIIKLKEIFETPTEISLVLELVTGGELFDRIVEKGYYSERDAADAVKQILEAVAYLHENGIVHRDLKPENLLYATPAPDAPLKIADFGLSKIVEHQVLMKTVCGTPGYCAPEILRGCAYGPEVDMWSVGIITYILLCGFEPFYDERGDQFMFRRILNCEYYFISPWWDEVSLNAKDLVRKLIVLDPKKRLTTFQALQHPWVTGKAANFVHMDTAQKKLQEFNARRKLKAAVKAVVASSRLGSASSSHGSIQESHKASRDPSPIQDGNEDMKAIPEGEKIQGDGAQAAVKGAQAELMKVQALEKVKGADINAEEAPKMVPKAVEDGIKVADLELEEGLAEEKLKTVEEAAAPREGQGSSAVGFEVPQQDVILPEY

Assay [5] addresses T3, Ribosyldihydronicotinamide dehydrogenase [quinone] (Homo sapiens, UniProt P16083).
T3 sequence (P16083 whole entry): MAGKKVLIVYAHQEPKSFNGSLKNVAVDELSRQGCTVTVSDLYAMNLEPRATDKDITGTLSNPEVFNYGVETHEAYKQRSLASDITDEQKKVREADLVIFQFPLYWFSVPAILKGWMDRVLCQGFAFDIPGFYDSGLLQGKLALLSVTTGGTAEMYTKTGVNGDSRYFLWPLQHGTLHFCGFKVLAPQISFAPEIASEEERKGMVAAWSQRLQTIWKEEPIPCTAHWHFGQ

Assay [6] deals with T4, dCTP pyrophosphatase 1 (Homo sapiens, UniProt Q9H773).
T4 sequence (Q9H773 whole entry): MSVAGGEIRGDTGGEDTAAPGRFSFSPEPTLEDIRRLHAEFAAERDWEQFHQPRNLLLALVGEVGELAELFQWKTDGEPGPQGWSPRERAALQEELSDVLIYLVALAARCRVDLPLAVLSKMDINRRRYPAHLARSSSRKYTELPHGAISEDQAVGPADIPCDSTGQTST

Assay [7] concerns the target T5, ADP/ATP translocase 3 (Homo sapiens, UniProt P12236).
T5 sequence (P12236 whole entry): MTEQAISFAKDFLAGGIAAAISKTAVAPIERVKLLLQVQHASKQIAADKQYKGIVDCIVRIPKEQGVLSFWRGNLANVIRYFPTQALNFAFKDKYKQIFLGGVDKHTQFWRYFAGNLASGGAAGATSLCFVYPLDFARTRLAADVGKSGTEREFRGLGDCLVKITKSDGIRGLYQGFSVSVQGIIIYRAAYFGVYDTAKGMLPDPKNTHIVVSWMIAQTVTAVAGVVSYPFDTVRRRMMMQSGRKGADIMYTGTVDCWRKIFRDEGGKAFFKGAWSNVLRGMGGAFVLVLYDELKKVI

Assay [8] has as its target T6, Phosphatidylinositol 5-phosphate 4-kinase type-2 alpha (Homo sapiens, UniProt P48426).
T6 sequence (P48426 whole entry): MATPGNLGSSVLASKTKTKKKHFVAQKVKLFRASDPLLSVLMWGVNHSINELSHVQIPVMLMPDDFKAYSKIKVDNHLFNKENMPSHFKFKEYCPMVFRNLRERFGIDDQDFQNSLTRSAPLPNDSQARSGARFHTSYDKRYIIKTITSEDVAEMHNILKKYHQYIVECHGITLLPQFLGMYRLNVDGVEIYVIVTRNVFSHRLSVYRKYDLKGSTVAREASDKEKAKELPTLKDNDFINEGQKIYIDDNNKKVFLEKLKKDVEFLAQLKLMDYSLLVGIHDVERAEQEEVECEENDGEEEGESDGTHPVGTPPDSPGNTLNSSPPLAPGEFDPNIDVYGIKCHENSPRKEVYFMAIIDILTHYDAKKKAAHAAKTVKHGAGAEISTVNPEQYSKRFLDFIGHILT

The source made the active and inactive calls.
Note: in the data inactive means no Kd found up to 30 µM.

RAC-alpha serine/threonine-protein kinase, sequence (P31749 whole entry): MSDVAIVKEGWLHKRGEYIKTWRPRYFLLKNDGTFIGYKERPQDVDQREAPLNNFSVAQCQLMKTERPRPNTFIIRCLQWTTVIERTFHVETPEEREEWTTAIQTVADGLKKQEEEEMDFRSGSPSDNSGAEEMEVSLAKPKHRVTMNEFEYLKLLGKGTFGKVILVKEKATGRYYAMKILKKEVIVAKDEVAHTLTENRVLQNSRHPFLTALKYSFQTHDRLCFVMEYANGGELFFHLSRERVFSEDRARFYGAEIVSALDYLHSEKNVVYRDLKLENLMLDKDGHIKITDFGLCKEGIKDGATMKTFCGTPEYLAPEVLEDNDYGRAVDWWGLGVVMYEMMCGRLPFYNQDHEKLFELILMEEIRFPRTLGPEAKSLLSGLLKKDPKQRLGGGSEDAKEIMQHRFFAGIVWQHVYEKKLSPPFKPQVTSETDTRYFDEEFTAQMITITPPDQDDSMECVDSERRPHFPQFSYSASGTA
Ribosomal protein S6 kinase alpha-6, sequence (Q9UK32 whole entry): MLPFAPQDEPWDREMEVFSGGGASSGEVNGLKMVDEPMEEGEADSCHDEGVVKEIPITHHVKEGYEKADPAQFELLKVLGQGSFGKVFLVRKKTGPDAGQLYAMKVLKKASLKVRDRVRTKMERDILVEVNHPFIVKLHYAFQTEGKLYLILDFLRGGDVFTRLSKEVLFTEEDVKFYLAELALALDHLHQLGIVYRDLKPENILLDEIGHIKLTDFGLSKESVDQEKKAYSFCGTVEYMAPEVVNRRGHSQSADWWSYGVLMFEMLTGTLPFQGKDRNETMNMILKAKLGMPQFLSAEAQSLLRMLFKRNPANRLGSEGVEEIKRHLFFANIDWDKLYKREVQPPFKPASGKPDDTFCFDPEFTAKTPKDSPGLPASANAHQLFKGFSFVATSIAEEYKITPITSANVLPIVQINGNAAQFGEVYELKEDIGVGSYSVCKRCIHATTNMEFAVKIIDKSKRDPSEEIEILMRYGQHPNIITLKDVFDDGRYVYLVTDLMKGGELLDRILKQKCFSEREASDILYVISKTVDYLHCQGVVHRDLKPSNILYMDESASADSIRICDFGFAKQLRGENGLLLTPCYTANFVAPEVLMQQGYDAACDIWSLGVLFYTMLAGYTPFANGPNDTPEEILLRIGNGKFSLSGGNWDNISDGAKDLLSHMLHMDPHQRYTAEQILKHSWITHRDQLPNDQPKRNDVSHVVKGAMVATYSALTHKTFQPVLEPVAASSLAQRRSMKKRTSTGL

One may read the Kd as a measure of binding affinity in units of concentration. `N#CC1(c2ccc(NC(=O)c3cccnc3NCc3ccncc3)cc2)CCCC1` [RIVOCERANIB]: the Kd in assay [1], in assay [2], in assay [3], in assay [4], in assay [5] and in assay [6] was > 30 µM (inactive) in each case. In addition, the Kd in assay [7] and in assay [8] was > 30 µM (inactive) each time.
For the compound `O=c1[nH]ccc2cc(OC3CCNCC3)ccc12` [SAR-407899 FREE BASE], the Kd in assay [1], in assay [2], in assay [3], in assay [4], in assay [5] and in assay [6] was > 30 µM (inactive) throughout. Besides, the Kd in assay [7] and in assay [8] was > 30 µM (inactive) throughout.
Take `CN1CCN(CCOc2cc(OC3CCOCC3)c3c(Nc4c(Cl)ccc5c4OCO5)ncnc3c2)CC1` [SARACATINIB]: the Kd in assay [1], in assay [2], in assay [3], in assay [4], in assay [5] and in assay [6] was > 30 µM (inactive) each time. Moreover, the Kd in assay [7] and in assay [8] was > 30 µM (inactive) throughout.
Take `Cn1cc(-c2cnn3c(N)c(Br)c([C@@H]4CCCNC4)nc23)cn1` [SCH-900776]: the Kd in assay [1] is > 30 µM (inactive); in assay [2], 1.27 µM (active); in assay [3], > 30 µM (inactive); in assay [4], > 30 µM (inactive); in assay [5], 2.36 µM (active); in assay [6], > 30 µM (inactive). The Kd in assay [7] and in assay [8] was > 30 µM (inactive) throughout.
Consider `CO[C@H]1C[C@@H]2CC[C@@H](C)[C@@](O)(O2)C(=O)C(=O)N2CCCC[C@H]2C(=O)O[C@H]([C@H](C)C[C@@H]2CC[C@@H](O)[C@H](OC)C2)CC(=O)[C@H](C)/C=C(\C)[C@@H](O)[C@@H](OC)C(=O)[C@H](C)C[C@H](C)/C=C/C=C/C=C/1C` [SIROLIMUS], for which the Kd in assay [1], in assay [2], in assay [3], in assay [4], in assay [5] and in assay [6] was > 30 µM (inactive) throughout. The Kd in assay [7] and in assay [8] was > 30 µM (inactive) in each case.
Regarding `CCS(=O)(=O)c1cccc(-c2cc(C(=O)NC3CCN(C)CC3)c(C)c3[nH]c4ncc(C)cc4c23)c1` [TAK-901], the Kd is > 30 µM (inactive) in assay [1]; 0.899 µM (active) in assay [2]; > 30 µM (inactive) in assay [3]; > 30 µM (inactive) in assay [4]; 88.9 µM (active) in assay [5]; > 30 µM (inactive) in assay [6]. Further, the Kd in assay [7] and in assay [8] was > 30 µM (inactive) throughout.
As for `CO[C@H]1C[C@@H]2CC[C@@H](C)[C@@](O)(O2)C(=O)C(=O)N2CCCC[C@H]2C(=O)O[C@H]([C@H](C)C[C@@H]2CC[C@@H](OC(=O)C(C)(CO)CO)[C@H](OC)C2)CC(=O)[C@H](C)/C=C(\C)[C@@H](O)[C@@H](OC)C(=O)[C@H](C)C[C@H](C)/C=C/C=C/C=C/1C` [TEMSIROLIMUS], the Kd in assay [1], in assay [2], in assay [3], in assay [4], in assay [5] and in assay [6] was > 30 µM (inactive) each time. The Kd in assay [7] and in assay [8] was > 30 µM (inactive) in each case.
As to `COc1cc2c(Nc3ccc(Cl)c(Cl)c3F)ncnc2cc1OC[C@@H]1C[C@@H]2CN(C)C[C@@H]2C1` [TESEVATINIB], the Kd in assay [1], in assay [2], in assay [3], in assay [4], in assay [5] and in assay [6] was > 30 µM (inactive) in each case. In addition, the Kd in assay [7] and in assay [8] was > 30 µM (inactive) in each case.
Turning to `O=C(Cc1ccc(-c2ccc(OCCN3CCOCC3)cc2)cn1)NCc1ccccc1` [TIRBANIBULIN], the Kd in assay [1], in assay [2], in assay [3], in assay [4], in assay [5] and in assay [6] was > 30 µM (inactive) throughout. Further, the Kd in assay [7] and in assay [8] was > 30 µM (inactive) each time.
With `C[C@@H](NC(=O)c1ncnc(N)c1Cl)c1ncc(C(=O)Nc2cc(C(F)(F)F)c(Cl)cn2)s1` [TOVORAFENIB], the Kd in assay [1], in assay [2], in assay [3], in assay [4], in assay [5] and in assay [6] was > 30 µM (inactive) throughout. In addition, the Kd in assay [7] and in assay [8] was > 30 µM (inactive) each time.
Consider `Cc1cc(Nc2ncnc3ccc(NC4=NC(C)(C)CO4)cc23)ccc1Oc1ccn2ncnc2c1` [TUCATINIB], for which the Kd is > 30 µM (inactive) in assay [1]; > 30 µM (inactive) in assay [2]; > 30 µM (inactive) in assay [3]; > 30 µM (inactive) in assay [4]; 2.46 µM (active) in assay [5]; > 30 µM (inactive) in assay [6]. The Kd in assay [7] and in assay [8] was > 30 µM (inactive) in each case.
`CN1C/C=C/CCOc2cccc(c2)-c2ccnc(n2)Nc2cccc(c2)C1` [ZOTIRACICLIB]: the Kd is > 30 µM (inactive) in assay [1]; > 30 µM (inactive) in assay [2]; 0.557 µM (active) in assay [3]; > 30 µM (inactive) in assay [4]; > 30 µM (inactive) in assay [5]; > 30 µM (inactive) in assay [6]. Moreover, the Kd in assay [7] and in assay [8] was > 30 µM (inactive) throughout.
